Read-outs that look alike come from different tables or passages of the source.
Target: T1, USP28 (His-tagged USP28-FL-mammalian) (Homo sapiens, UniProt Q96RU2)
T1 construct: Expression of USP28 (1-1077)-TEV-6*His (pTT5 vector); made in house; host or cells: Expi293f cells (pTT5 vector)
T1 sequence (Q96RU2 1-1077): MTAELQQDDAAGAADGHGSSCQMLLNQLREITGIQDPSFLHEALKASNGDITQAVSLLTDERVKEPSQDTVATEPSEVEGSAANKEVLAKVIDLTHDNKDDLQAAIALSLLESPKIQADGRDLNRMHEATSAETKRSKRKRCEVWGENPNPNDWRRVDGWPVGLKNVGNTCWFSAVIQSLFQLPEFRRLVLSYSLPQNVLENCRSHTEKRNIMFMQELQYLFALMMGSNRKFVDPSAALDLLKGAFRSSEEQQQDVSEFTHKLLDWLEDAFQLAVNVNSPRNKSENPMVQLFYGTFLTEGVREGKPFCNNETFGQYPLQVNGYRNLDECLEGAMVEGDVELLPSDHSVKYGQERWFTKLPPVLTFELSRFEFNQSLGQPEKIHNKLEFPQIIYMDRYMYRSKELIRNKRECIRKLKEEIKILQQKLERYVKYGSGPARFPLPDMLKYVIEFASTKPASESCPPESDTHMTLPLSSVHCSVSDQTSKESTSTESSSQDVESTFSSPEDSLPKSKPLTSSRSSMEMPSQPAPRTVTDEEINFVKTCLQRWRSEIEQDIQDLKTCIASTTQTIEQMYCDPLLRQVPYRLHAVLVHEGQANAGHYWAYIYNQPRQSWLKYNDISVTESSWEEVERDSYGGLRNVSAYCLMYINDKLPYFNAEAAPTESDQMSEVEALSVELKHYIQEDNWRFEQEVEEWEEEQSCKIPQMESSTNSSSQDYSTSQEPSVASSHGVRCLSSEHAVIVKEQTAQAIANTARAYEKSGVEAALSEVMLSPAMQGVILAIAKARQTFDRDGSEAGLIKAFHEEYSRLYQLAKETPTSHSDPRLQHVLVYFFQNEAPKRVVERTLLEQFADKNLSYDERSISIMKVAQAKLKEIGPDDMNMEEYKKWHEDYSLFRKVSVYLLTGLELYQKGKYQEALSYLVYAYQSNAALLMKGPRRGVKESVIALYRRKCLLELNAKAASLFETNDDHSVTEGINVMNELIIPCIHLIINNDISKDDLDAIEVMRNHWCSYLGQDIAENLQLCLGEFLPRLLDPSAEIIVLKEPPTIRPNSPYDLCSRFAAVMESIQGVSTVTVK
Experiment: Ubiquitin-Rhodamine 110 Assay for USP28 Activity, Example A-1(a)
Format: biochemical
Settings: Ubiquitin-Rhodamine 110 assay, read-out: USP28 A-1(a) IC50 range
In short: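 Full-length His-tagged USP28 (1-1077, Expi293F-expressed; […]) was preincubated 30 min with compound (25 μM–1.3 nM, 10-point 3-fold) in 20 mM Tris-HCl pH 8.0, 3 mM BME, 0.03% BGG, 0.01% Triton X-100. Ub-Rh110 (25 nM) was then added for 45 min at room temperature, stopped with citric acid, and read by fluorescence (485/535 nm).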

| SMILES | IC50 (format Example A-1(a)) [nM] | IC50 (Example A-1(a)) [nM] |
| --- | --- | --- |
| Cc1ccc2c(N)c(C(=O)N[C@H]3CCc4c(F)c(N5CCNCC5)cc(F)c4C3)sc2n1 (single isomer, unassigned) [Example 22-1] | 200 to 2000 |  |
| Cc1cnc2c(N)c(C(=O)N[C@@H]3CCc4cc(N5CC6CCC(C5)N6)cc(F)c4C3)sc2n1 (single isomer, unassigned) [Example 11-14] |  | 1 to 50 |
| COc1ccc2c(N)c(C(=O)N[C@@H]3CCc4cc(N5CC6CCC(C5)N6)ccc4C3)sc2n1 (single isomer, unassigned) [Example 11-6] |  | 200 to 2000 |
| Cc1ccc2c(N)c(C(=O)N[C@H]3COc4cc(N5CCNCC5)ncc4C3)sc2n1 [Example 16, (R)-3-Amino-6-methyl-N-(7-(piperazin-1-yl)-3,4-dihydro-2H-pyrano[3,2-c]pyridin-3-yl)thieno[2,3-b]pyridine-2-carboxamide] | 1 to 50 |  |
| Cc1ccc2c(N)c(C(=O)N[C@H]3CCc4cc(N5CC6CCC(C5)N6)ccc4C3)sc2n1 [Example 11-1, N-((2S)-6-(3,8-diazabicyclo[3.2.1]octan-3-yl)-1,2,3,4-tetrahydronaphthalen-2-yl)-3-amino-6-methylthieno[2,3-b]pyridine-2-carboxamide] |  | 1 to 50 |
| Cc1cnc2c(N)c(C(=O)N[C@H]3CCc4cc(N5CC6CCC(C5)N6)cc(F)c4C3)sc2n1 (single isomer, unassigned) [Example 11-13] |  | 200 to 2000 |
| CO[C@H]1CN(c2ccc3c(n2)CC[C@H](NC(=O)c2sc4nc(C)cc(C)c4c2N)C3)C[C@@H]1N [Example 23-3, 3-amino-N-[(6S)-2-[(3S,4S)-3-amino-4-methoxypyrrolidin-1-yl]-5,6,7,8-tetrahydroquinolin-6-yl]-4,6-dimethylthieno[2,3-b]pyridine-2-carboxamide] | 50 to 200 |  |
| Cc1ccc2c(N)c(C(=O)N[C@@H]3CCc4cc(N5CCNCC5)c(F)cc4C3)sc2n1 (single isomer, unassigned) [Example 21-7] | 50 to 200 |  |
| CO[C@H]1CN(c2cc(F)c3c(c2)OC[C@H](NC(=O)c2sc4nc(C)ccc4c2N)C3)C[C@@H]1N (single isomer, unassigned) [Example 10-3] |  | 1 to 50 |
| Cc1ccc2c(N)c(C(=O)N[C@@H]3CCc4cc(N5CCN[C@H](CO)C5)ccc4C3)sc2n1 (single isomer, unassigned) [Example 7-10] |  | 50 to 200 |
| Cc1ccc2c(N)c(C(=O)N[C@H]3CCc4cc(N5CCNCC5)c(F)cc4C3)sc2n1 (single isomer, unassigned) [Example 21-8] | 200 to 2000 |  |
| Cc1ccc2c(N)c(C(=O)N[C@H]3COc4nc(N5CCNCC5)ccc4C3)sc2n1 [Example 19, (R)-3-Amino-6-methyl-N-(7-(piperazin-1-yl)-3,4-dihydro-2H-pyrano[2,3-b]pyridin-3-yl)thieno[2,3-b]pyridine-2-carboxamide] | 50 to 200 |  |
| COc1ccc2c(N)c(C(=O)N[C@H]3CCc4cc(N5CC6CCC(C5)N6)ccc4C3)sc2n1 (single isomer, unassigned) [Example 11-5] |  | 1 to 50 |
| Cc1ccc2c(N)c(C(=O)N[C@H]3COc4cc(N5CCNCC5)cc(F)c4C3)sc2n1 [Example 10-1, (R)-3-amino-N-(5-fluoro-7-(piperazin-1-yl)chroman-3-yl)-6-methylthieno[2,3-b]pyridine-2-carboxamide] |  | 1 to 50 |
| Cc1ccc2c(N)c(C(=O)N[C@H]3CCc4cc(N5CCNCC5)cnc4C3)sc2n1 (single isomer, unassigned) [Example 15-2] | 200 to 2000 |  |
| Cc1cnc2c(N)c(C(=O)N[C@H]3CCc4cc(N5CCNC[C@H](O)C5)ccc4C3)sc2n1 (single isomer, unassigned) [Example 7-6] |  | 200 to 2000 |
| Cc1ccc2c(N)c(C(=O)N[C@H]3CCc4cc(N5C6CNCC5C6)ccc4C3)sc2n1 (single isomer, unassigned) [Example 11-35] | 1 to 50 |  |
| Cc1ccc2c(N)c(C(=O)N[C@@H]3CCc4c(F)c(N5CC6CCC(C5)N6)cc(F)c4C3)sc2n1 (single isomer, unassigned) [Example 22-6] | 200 to 2000 |  |

| SMILES | IC50 (format Example A-1(a)) [nM] | IC50 (Example A-1(a)) [nM] |
| --- | --- | --- |
| Cc1ccc2c(N)c(C(=O)N[C@@H]3CCc4cc(N5CCNCC5)cnc4C3)sc2n1 (single isomer, unassigned) [Example 15-1] | > 2000 |  |
| CO[C@@H]1CN(c2cc(F)c3c(c2)OC[C@H](NC(=O)c2sc4nc(C)ccc4c2N)C3)C[C@H]1N [Example 10-2, 3-amino-N-((R)-7-((3R,4R)-3-amino-4-methoxypyrrolidin-1-yl)-5-fluorochroman-3-yl)-6-methylthieno[2,3-b]pyridine-2-carboxamide] |  | 1 to 50 |
| Cc1ccc2c(N)c(C(=O)N[C@H]3CCc4cc(N5CCNCC5)cc(F)c4C3)sc2n1 (single isomer, unassigned) [Example 11-11] |  | 200 to 2000 |
| Cc1nc2sc(C(=O)N[C@@H]3CCc4cc(N5CC6CCC(C5)N6)ccc4C3)c(N)c2cc1F (single isomer, unassigned) [Example 11-4] |  | 1 to 50 |
| CCn1ccc2cc(C(=O)N[C@H]3CCc4cc(N5CC6CCC(C5)N6)ccc4C3)cnc21 (single isomer, unassigned) [Example 11-9] |  | 200 to 2000 |
| Cc1ccc2c(N)c(C(=O)N[C@H]3COc4cc(O[C@H]5COC6(CNC6)C5)ccc4C3)sc2n1 (single isomer, unassigned) [Example 9-2] |  | 1 to 50 |
| CO[C@H]1CN(c2ccc3c(n2)CC[C@@H](NC(=O)c2sc4nc(C)ccc4c2N)C3)C[C@@H]1N [Example 23-5, 3-amino-N-[(6R)-2-[(3S,4S)-3-amino-4-methoxypyrrolidin-1-yl]-5,6,7,8-tetrahydroquinolin-6-yl]-6-methylthieno[2,3-b]pyridine-2-carboxamide] | 200 to 2000 |  |
| Cc1ccc2c(N)c(C(=O)N[C@H]3COc4cc(N5CCNCC5)c(Cl)cc4C3)sc2n1 [Example 13-5, (R)-3-amino-N-(6-chloro-7-(piperazin-1-yl)chroman-3-yl)-6-methylthieno[2,3-b]pyridine-2-carboxamide] | > 2000 |  |
| CCn1ccc2cc(C(=O)N[C@@H]3CCc4cc(N5CC6CCC(C5)N6)ccc4C3)nnc21 (single isomer, unassigned) [Example 11-23] |  | 200 to 2000 |
| Cc1ccc2c(N)c(C(=O)N[C@@H]3COc4cc(N5CCNCC5)ccc4[C@@H]3C)sc2n1 (single isomer, unassigned) [Example 11-18] |  | > 2000 |
| Cc1cnc2c(N)c(C(=O)N[C@H]3COc4cc(N5CC6CNCC(C5)O6)cc(F)c4C3)sc2n1 [Example 10-12, N-((3R)-7-(9-oxa-3,7-diazabicyclo[3.3.1]nonan-3-yl)-5-fluorochroman-3-yl)-7-amino-3-methylthieno[2,3-b]pyrazine-6-carboxamide] |  | 1 to 50 |
| Cc1nc2sc(C(=O)N[C@H]3CCc4cc(N5CC6CCC(C5)N6)ccc4C3)c(N)c2cc1F (single isomer, unassigned) [Example 11-3] |  | 50 to 200 |
| Cc1cnc2c(N)c(C(=O)N[C@H]3COc4cc(N5CCNCC5)cc(F)c4C3)sc2n1 [Example 10-10, (R)-7-amino-N-(5-fluoro-7-(piperazin-1-yl)chroman-3-yl)-3-methylthieno[2,3-b]pyrazine-6-carboxamide] |  | 1 to 50 |
| Cc1ccc2c(N)c(C(=O)N[C@H]3COc4c(cnc(N5CC6CCC(C5)N6)c4F)C3)sc2n1 [Example 18, N-((3R)-7-(3,8-Diazabicyclo[3.2.1]octan-3-yl)-8-fluoro-3,4-dihydro-2H-pyrano[3,2-c]pyridin-3-yl)-3-amino-6-methylthieno[2,3-b]pyridine-2-carboxamide] | 1 to 50 |  |
| Cc1cnc2c(N)c(C(=O)N[C@@H]3CCc4cc(N5CCNC[C@H](O)C5)ccc4C3)sc2n1 (single isomer, unassigned) [Example 7-7] |  | 200 to 2000 |
| Cc1ccc2c(N)c(C(=O)N[C@@H]3CCc4c(ccc(N5CC6CCC(C5)N6)c4F)C3)sc2n1 (single isomer, unassigned) [Example 21-1] | 50 to 200 |  |
| Cc1ccc2c(N)c(C(=O)N[C@@H]3CCc4cc(N5CCNCC5)cc(F)c4C3)sc2n1 (single isomer, unassigned) [Example 11-12] |  | 1 to 50 |
